Source: US20080004290A1, “Anti-Cancer Agents” (THE UNIVERSITY OF QUEENSLAND, priority 2003, published 2008)
Like-named read-outs stand apart in the source and are kept apart here.

Legend:
[1] = system: NFF, neonatal foreskin fibroblasts; experiment: Cell survival assay (clonogenic survival, SRB), normal cells; type: cell-based, human; conditions: SRB
Procedure: (§1) The cytotoxicities of the compounds of the invention were determined by clonogenic survival of human cancer cells (MM96L, melanoma) and human normal cells (NFF, neonatal foreskin fibroblasts). Cells were incubated with the compounds at various concentrations of compound (0.01-10 μg/mL) for 24 hours, washed, and then grown for a further four days in the absence of hydroxamic acid before determining cell survival by cell count. The final readout involved staining with sulforhodamine B (SRB), a cost-effective method amenable to automation and high throughput analysis. At the technical level, “cell sensitivity” is often inferred from short term (1-2 day) observations such as apoptosis, which may not be a satisfactory model of clonogenic survival.
(§2) Cell Lines and Culture Medium. All cell lines used in this study have been described previously (Parsons et al., 1986; Todaro et al., 1980; Glenn et al., 2004). All cell lines were cultured in 10% heat-inactivated foetal calf serum (CSL, Australia) in RPMI 1640 medium supplemented with 100 U/mL penicillin, 100 μg/mL streptomycin, and 3 mM HEPES at 5% CO2, 99% humidity at 37° C. Primary human fibroblasts were obtained from neonatal foreskins and cultured in the above medium. Routine mycoplasma tests were performed using Hoechst stain^i and were always negative.
(§3) Cell Survival Assay. Cells were plated into 96-well microtitre plates at 5×10^3 cells/well, and allowed to adhere overnight. Test compounds were added to culture medium at the indicated concentrations, and plates incubated in the above conditions for 24 hours. Following this incubation period, compounds and media were removed, and replaced with fresh culture medium. Cells were then grown for a further 72 hours before assay using sulforhodamine B (SRB; Sigma, St. Louis, Mo.) as previously described. Briefly, the culture medium was removed from the 96-well microtitre plates and the plates washed twice with phosphate buffered saline (PBS), before the cells were fixed with methylated spirits for 15 minutes. The plates were then rinsed with tap water and the fixed cells stained with 50 μL/well of SRB solution (0.4% sulforhodamine B (w/v) in 1% (v/v) acetic acid) over a period of 1 hour. The SRB solution was then removed from the wells and the plates rapidly washed two times with 1% (v/v) acetic acid. Protein bound dye was then solubilised with the addition of 100 μL of 10 mM unbuffered Tris, and incubated for 15 min at 25° C. Plates were then read at 564 nm on a VERSA max tunable microplate reader (Molecular Devices, Sunnyvale, Calif.).

MM96L melanoma cells = experiment: Cell survival assay (clonogenic survival, SRB); type: cell-based, human; conditions: for SI (Selectivity Index = IC50 (NFF)/IC50 (MM96L)): NFF vs MM96L
Procedure: as §1, §2, §3

[2] = Homo sapiens, Fibroblast, 24 h, Table 6, 24 hours with compound, further growth, read-out: IC50 (μM) NFF
[3] = Homo sapiens, MM96L, 24 h, Table 6, 24 hours with compound, further growth, SRB, read-out: IC50 (μM) MM96L
[4] = Table 6, IC50 (NFF)/IC50 (MM96L)
[5] = Table 8, 24 hours with compound, further growth, read-out: IC50 (μM) NFF
[6] = Table 8, 24 hours with compound, further growth, SRB, read-out: IC50 (μM) MM96
[7] = Table 8, IC50 (NFF)/IC50 (MM96L)
[8] = Table 5, 24 hours with compound, further growth, read-out: IC50 NFF
[9] = Table 5, 24 hours with compound, further growth, SRB, read-out: IC50 MM96L
[10] = Table 5, Selectivity Index = IC50 (NFF)/IC50 (MM96L)
[11] = Homo sapiens, Fibroblast, NFF normal fibroblasts, 24 h with compound, further 72 h growth, read-out: IC50 (uM) NFF
[12] = Homo sapiens, MM96L, MM96L melanoma, 24 h with compound, further 72 h growth, SRB, read-out: IC50 (uM) MM96L

Work on `CN(C)c1ccc(C(=O)N[C@@H](CSCCCC(=O)NO)C(=O)NCC2CCCCC2)cc1` [Example 88] yielded an IC50 [1, 2] of 3.6 ± 0.2 µM, an IC50 (MM96L melanoma cells; [3]) of 0.51 ± 0.09 µM and a Selectivity (MM96L melanoma cells; [4]) of 7.1.

For `CC(C)CNC(=O)c1ccc(CNC(=O)[C@H](CSCCCC(=O)NO)NC(=O)c2ccc(N(C)C)cc2)cc1` [Example 104], the IC50 [1, 5] was 8.08 µM, the IC50 (MM96L melanoma cells; [6]) was 1.62 µM and the Selectivity (MM96L melanoma cells; [7]) was 5.0.

`O=C(CCCSC[C@H](NC(=O)c1cc2ccccc2cc1O)C(=O)NCc1ccccc1)NO` [Example 39] was tested, and the IC50 [1, 8] was > 100 µM, the IC50 (MM96L melanoma cells; [9]) was 13 ± 2 µM and the Selectivity (MM96L melanoma cells; [10]) was >8.

Work on `CN(C)c1ccc(C(=O)N[C@@H](CSCCCC(=O)NO)C(=O)Nc2cccc3cc4ccccc4cc23)cc1` [Example 71] yielded an IC50 [1, 2] of 2.2 ± 0.3 µM, an IC50 (MM96L melanoma cells; [3]) of 1.7 ± 0.3 µM and a Selectivity (MM96L melanoma cells; [4]) of 1.3.

In the case of `CN(C)c1ccc(C(=O)N[C@@H](CSCCCC(=O)NO)C(=O)NCc2ccc(C(=O)Nc3ccccc3)cc2)cc1` [Example 121], the IC50 [1, 5] is reported as 11.6 µM, the IC50 (MM96L melanoma cells; [6]) is reported as 1.41 µM and the Selectivity (MM96L melanoma cells; [7]) is reported as 8.2.

For `O=C(CCCCC[C@H](NC(=O)c1ccco1)C(=O)NCc1ccccc1)NO` (racemic) [Example 133], the IC50 [1, 11] was 4.6 ± 0.4 µM, the IC50 (MM96L melanoma cells; [12]) was 0.2 ± 0.1 µM and the IC50 (MM96L melanoma cells; Homo sapiens, MM96L, most preferred compounds, exemplary examples, read-out: potency of IC50 against the MM96 melanoma cells) was ≤ 0.5 µM. The “SI (Selectivity Index = IC50 (NFF)/IC50 (MM96L))” value (MM96L melanoma cells) was 23.

`O=C(CCCSC[C@H](NS(=O)(=O)c1ccccc1)C(=O)NCc1ccccc1)NO` [Example 58] was tested, and the IC50 [1, 8] was > 100 µM, the IC50 (MM96L melanoma cells; [9]) was < 100 µM and the Selectivity (MM96L melanoma cells; [10]) was >1.

`CN(C)c1ccc(NC(=O)c2ccc(CNC(=O)[C@H](CSCCCC(=O)NO)NC(=O)c3ccc(N(C)C)cc3)cc2)cc1` [Example 109] showed an IC50 [1, 5] of 2.42 µM, an IC50 (MM96L melanoma cells; [6]) of 0.54 µM and a Selectivity (MM96L melanoma cells; [7]) of 4.5.

For `CN(C)c1ccc(C(=O)N[C@@H](CSCCCC(=O)NO)C(=O)NCCc2cccc(Br)c2)cc1` [Example 85], the IC50 ([1]; Table 6, 24 hours with compound, further growth, read-out: IC50 (μM) NFF) was 3.1 ± 0.1 µM, the IC50 (MM96L melanoma cells; Table 6, 24 hours with compound, further growth, SRB, read-out: IC50 (μM) MM96L) was 0.9 ± 0.1 µM and the Selectivity (MM96L melanoma cells; [4]) was 3.4.

`O=C(CCCSC[C@H](NC(=O)c1ccc(F)cc1Cl)C(=O)NCc1ccccc1)NO` [Example 28] was tested, and the IC50 [1, 8] was > 100 µM, the IC50 (MM96L melanoma cells; [9]) was 28 ± 3 µM and the Selectivity (MM96L melanoma cells; [10]) was >3.

In the case of `CN(C)c1ccc(C(=O)N[C@@H](CSCCCC(=O)NO)C(=O)NC2CCN(Cc3ccccc3)CC2)cc1` [Example 90], the IC50 [1, 2] is reported as 1.28 ± 0.08 µM, the IC50 (MM96L melanoma cells; [3]) is reported as 1.5 ± 0.2 µM and the Selectivity (MM96L melanoma cells; [4]) is reported as 0.9.

`O=C(CCCCC[C@H](NC(=O)c1ccc(Br)cc1)C(=O)NCc1ccccc1)NO` [Example 136] was tested, and the IC50 [1, 11] was 5.86 µM, the IC50 (MM96L melanoma cells; [12]) was 1.99 µM and the “SI (Selectivity Index = IC50 (NFF)/IC50 (MM96L))” value (MM96L melanoma cells) was 4.2.

For `O=C(CCCCC[C@H](NC(=O)OCc1ccccc1)C(=O)NCc1ccncc1)NO` [Example 159], the IC50 [1, 11] was 23.3 µM, the IC50 (MM96L melanoma cells; [12]) was 4.32 µM and the “SI (Selectivity Index = IC50 (NFF)/IC50 (MM96L))” value (MM96L melanoma cells) was 5.4.

`CC(=O)c1cccc(NC(=O)[C@H](CSCCCC(=O)NO)NC(=O)c2ccc(N(C)C)cc2)c1` [Example 60] showed an IC50 [1, 2] of 1.6 ± 0.08 µM, an IC50 (MM96L melanoma cells; [3]) of 0.55 ± 0.05 µM and a Selectivity (MM96L melanoma cells; [4]) of 2.9.

`CN(C)c1ccc(NC(=O)[C@H](CCCCCC(=O)NO)NC(=O)c2ccc(C(F)(F)F)cc2)cc1` [Example 152] was tested, and the IC50 [1, 11] was 0.404 µM, the IC50 (MM96L melanoma cells; [12]) was 0.222 µM and the “SI (Selectivity Index = IC50 (NFF)/IC50 (MM96L))” value (MM96L melanoma cells) was 1.8.

Molecule `CN(C)c1ccc(C(=O)N[C@@H](CSCCCC(=O)NO)C(=O)NCc2ccc(C(=O)NCc3ccccn3)cc2)cc1` [Example 108] has an IC50 [1, 5] of 16.9 µM, an IC50 (MM96L melanoma cells; [6]) of 2.28 µM and a Selectivity (MM96L melanoma cells; [7]) of 7.4.

`CC(C)=CC(=O)N[C@@H](CSCCCC(=O)NO)C(=O)NCc1ccccc1` [Example 53] was tested, and the IC50 [1, 8] was 22 ± 1 µM, the IC50 (MM96L melanoma cells; [9]) was 11 ± 1 µM and the Selectivity (MM96L melanoma cells; [10]) was 2.0.

Molecule `O=C(CCCSC[C@H](NC(=O)c1ccccc1C(=O)c1ccccc1)C(=O)NCc1ccccc1)NO` [Example 27] has an IC50 [1, 8] of 30 ± 1 µM, an IC50 (MM96L melanoma cells; [9]) of 24 ± 3 µM and a Selectivity (MM96L melanoma cells; [10]) of 1.3.

Work on `CN(C)c1ccc(C(=O)N[C@@H](CSCCCC(=O)NO)C(=O)NCc2ccc(C(=O)Nc3ccccc3Cc3ccccc3)cc2)cc1` [Example 120] yielded an IC50 [1, 5] of 2.32 µM, an IC50 (MM96L melanoma cells; [6]) of 1.02 µM and a Selectivity (MM96L melanoma cells; [7]) of 2.4.
